Test results: patent publication US20240181087A1, “COMPOSITION FOR CONTRAST IMAGING OF CANCER” (ASTELLAS PHARMA INC., priority 2021, published 2024)

How the values were obtained:
[1] = system: mouse bladder cancer cell MB49; assay: near-infrared fluorescence observation of bladder after tail vein administration, MB49 bladder cancer mouse model; assay type: in vivo
Protocol: (§1) Two bladder cancer mouse models (weight: about 20 g), having mouse bladder cancer cell MB49 transplanted in the bladder mucosa, and then grown for 3 weeks or 4 weeks, were used. To the tail vein of each of the mice, 0.2 mL of a saline containing the compound III (concentration of the compound III: 0.075 mg/mL) was administered, and after 1 day, the mouse was subjected to laparotomy under anesthesia by subcutaneous administration of ketamine (75 mg/kg) and medetomidine (1 mg/kg), and near-infrared fluorescence observation was performed with a near-infrared fluorescence imaging device (pde-neo, manufactured by Hamamatsu Photonics K.K., excitation wavelength: 760 nm, detection wavelength: fluorescence of 800 nm or more, the same applies hereinafter) (FIG. 1, right: near-infrared fluorescence image).
(§2) As a comparative example, a saline containing the compound III was administered to the tail vein of a normal mouse (weight: about 20 g), and after 1 day, the mouse was subjected to laparotomy under anesthesia by subcutaneous administration of ketamine (75 mg/kg) and medetomidine (1 mg/kg), and near-infrared fluorescence observation was performed with a near-infrared fluorescence imaging device (pde-neo, manufactured by Hamamatsu Photonics K.K.) (FIG. 2).
Two bladder cancer model mice (weight: about 20 g), having mouse bladder cancer cell MB49 transplanted in the bladder mucosa, and then grown for 3 weeks or 4 weeks, were used. To the tail vein of each of the mice, 0.2 mL of a saline containing the compound III (concentration of the compound III: 0.075 mg/mL) was administered. One day after the administration, the mouse was subjected to laparotomy under anesthesia by subcutaneous administration of ketamine (75 mg/kg) and medetomidine (1 mg/kg), and under observation of near-infrared fluorescence with a near-infrared fluorescence imaging device (pde-neo, manufactured by Hamamatsu Photonics K.K.), a cancer tissue site emitting near-infrared fluorescence was taken out for near-infrared fluorescence observation (FIG. 5, right: near-infrared fluorescence image). […]

[2] = system: mouse bladder cancer cell MB49; assay: near-infrared fluorescence observation of bladder after intravesical administration via the urethra, MB49 bladder cancer mouse model; assay type: in vivo; settings: into bladder via urethra, after 30 minutes washed with saline five times
Protocol: as §1, with “bladder” for “tail vein”, “administered via the urethra,” for “administered,”, “30 minutes, the inside of the bladder was washed via the urethra with saline five times. Thereafter,” for “1 day,”, “K.K.)” for “K.K., excitation wavelength: 760 nm, detection wavelength: fluorescence of 800 nm or more, the same applies hereinafter)”, “3,” for “1,”
as §2, with “the bladder” for “the tail vein”, “20 g) via the urethra,” for “20 g),”, “after 30 minutes, the inside of the bladder was washed via the urethra with saline five times. Thereafter,” for “after 1 day,”, “(FIG. 4). […]” for “(FIG. 2).”

## COC1=C(/C=C/C2=[N+](CCC(=O)NCCCO[C@H]3[C@H]4O[C@H]5[C@H](O)[C@@H](O)[C@@H](O[C@H]6[C@H](O)[C@@H](O)[C@@H](O[C@H]7[C@H](O)[C@@H](O)[C@@H](O[C@H]8[C@H](O)[C@@H](O)[C@@H](O[C@H]9[C@H](O)[C@@H](O)[C@@H](O[C@H]%10[C@H](O)[C@@H](O)[C@@H](O[C@@H]([C@@H]3O)[C@@H](CO)O4)O[C@@H]%10CO)O[C@@H]9CO)O[C@@H]8CO)O[C@@H]7CO)O[C@@H]6CO)O[C@@H]5CO)c3ccc4ccccc4c3C2(C)C)CCC/C1=C\C=C1\N(CCC(=O)NCCCO[C@H]2[C@H]3O[C@H]4[C@H](O)[C@@H](O)[C@@H](O[C@H]5[C@H](O)[C@@H](O)[C@@H](O[C@H]6[C@H](O)[C@@H](O)[C@@H](O[C@H]7[C@H](O)[C@@H](O)[C@@H](O[C@H]8[C@H](O)[C@@H](O)[C@@H](O[C@H]9[C@H](O)[C@@H](O)[C@@H](O[C@@H]([C@@H]2O)[C@@H](CO)O3)O[C@@H]9CO)O[C@@H]8CO)O[C@@H]7CO)O[C@@H]6CO)O[C@@H]5CO)O[C@@H]4CO)c2ccc3ccccc3c2C1(C)C.[Cl-] [compound III, 3-(3-{[3-(cyclomaltoheptaose-21-O-yl)propyl]amino}-3-oxopropyl)-2-{(1E)-2-[(3E)-3-{(2E)-2-[3-(3-{[3-(cyclomaltoheptaose-21-O-yl)propyl]amino}-3-oxopropyl)-1,1-dimethyl-1,3-dihydro-2H-benzo[e]indol-2-ylidene]ethylidene}-2-methoxycyclohexa-1-en-1-yl]ethene-1-yl}-1,1-dimethyl-1H-benzo[e]indol-3-ium chloride]
[1]; MB49 bladder cancer mouse model, 0.2 mL saline 0.075 mg/mL, 1 day after administration
  excision of tumor tissue with fluorescence emitted from the cancer tissue used as a guide: could be appropriately excised
[1]; MB49 bladder cancer mouse model, 0.2 mL saline 0.075 mg/mL, after 1 day, laparotomy
  near-infrared fluorescence in cancer tissue of the bladder: specifically observed
[1]; normal mouse, after 1 day, laparotomy
  near-infrared fluorescence of normal tissue (bladder): did not emit near-infrared fluorescence
[2]; MB49 bladder cancer mouse model, 0.2 mL 0.075 mg/mL
  near-infrared fluorescence in cancer tissue of the bladder: specifically observed
[2]; normal mouse
  near-infrared fluorescence of normal tissue (bladder): did not emit near-infrared fluorescence
